Assay results as given in ChEMBL document CHEMBL1201862, “PubChem BioAssay data set” (2004).
Active and inactive are the calls of the source. Rule as the data show it, for most assays here: actives have a measured EC50 and inactives only a lower limit.

How the values were obtained:
[1] = test system: Streptococcus sp. 'group A'; experiment: Streptococcus pyogenes SK(-)GAS viability under kanamycin – luminescence, BacTiterGlo, confirmation, counter-screen for streptokinase expression inhibitor project, dose response (AID 1900); format: functional, organism-based
Streptococcus = experiment: GAS UMAA2166 growth inhibition – luminescence, BacTiterGlo, counter-screen for streptokinase expression inhibitor project, dose response (AID 1915); format: functional, organism-based;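 also: potency for reduction of bacterial viability or growth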
Protein RecA = molecular target: T1, Protein RecA (Mycobacterium tuberculosis, UniProt P9WHJ3); experiment: Fluorescence Cell-Free Homogeneous Dose Retest to Identify Inhibitors of RecA-Intein Splicing Activity. [Related pubchem assays (depositor defined):AID2097, AID2223, AID489010, AID492950]; format: functional
T1 sequence (P9WHJ3 whole entry): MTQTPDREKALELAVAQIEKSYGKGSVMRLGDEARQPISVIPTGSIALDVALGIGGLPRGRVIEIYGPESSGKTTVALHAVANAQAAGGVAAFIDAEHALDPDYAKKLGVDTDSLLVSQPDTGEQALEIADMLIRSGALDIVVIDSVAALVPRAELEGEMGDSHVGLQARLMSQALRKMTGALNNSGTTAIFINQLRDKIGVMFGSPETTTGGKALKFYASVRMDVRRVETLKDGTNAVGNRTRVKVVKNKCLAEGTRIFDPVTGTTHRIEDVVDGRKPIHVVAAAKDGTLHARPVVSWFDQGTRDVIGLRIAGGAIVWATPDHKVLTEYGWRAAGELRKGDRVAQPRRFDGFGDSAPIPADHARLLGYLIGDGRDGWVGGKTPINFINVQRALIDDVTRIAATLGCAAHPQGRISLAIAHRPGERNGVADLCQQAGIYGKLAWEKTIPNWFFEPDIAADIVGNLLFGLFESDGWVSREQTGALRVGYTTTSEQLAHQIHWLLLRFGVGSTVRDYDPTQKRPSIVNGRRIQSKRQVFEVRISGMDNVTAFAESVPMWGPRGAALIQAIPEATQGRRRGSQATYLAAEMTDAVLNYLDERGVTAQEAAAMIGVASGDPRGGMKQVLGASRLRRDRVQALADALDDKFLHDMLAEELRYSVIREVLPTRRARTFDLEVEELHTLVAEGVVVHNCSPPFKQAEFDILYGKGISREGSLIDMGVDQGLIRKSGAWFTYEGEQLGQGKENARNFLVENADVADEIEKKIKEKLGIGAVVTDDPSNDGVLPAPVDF

[2] = molecular target: T2, Replicative DNA helicase DnaB (Mycobacterium tuberculosis, UniProt P9WMR3); experiment: DnaB intein splicing inhibitors, dose response, biochemical, cell-free fluorescence (AID 449749); format: functional
T2 sequence (P9WMR3 whole entry): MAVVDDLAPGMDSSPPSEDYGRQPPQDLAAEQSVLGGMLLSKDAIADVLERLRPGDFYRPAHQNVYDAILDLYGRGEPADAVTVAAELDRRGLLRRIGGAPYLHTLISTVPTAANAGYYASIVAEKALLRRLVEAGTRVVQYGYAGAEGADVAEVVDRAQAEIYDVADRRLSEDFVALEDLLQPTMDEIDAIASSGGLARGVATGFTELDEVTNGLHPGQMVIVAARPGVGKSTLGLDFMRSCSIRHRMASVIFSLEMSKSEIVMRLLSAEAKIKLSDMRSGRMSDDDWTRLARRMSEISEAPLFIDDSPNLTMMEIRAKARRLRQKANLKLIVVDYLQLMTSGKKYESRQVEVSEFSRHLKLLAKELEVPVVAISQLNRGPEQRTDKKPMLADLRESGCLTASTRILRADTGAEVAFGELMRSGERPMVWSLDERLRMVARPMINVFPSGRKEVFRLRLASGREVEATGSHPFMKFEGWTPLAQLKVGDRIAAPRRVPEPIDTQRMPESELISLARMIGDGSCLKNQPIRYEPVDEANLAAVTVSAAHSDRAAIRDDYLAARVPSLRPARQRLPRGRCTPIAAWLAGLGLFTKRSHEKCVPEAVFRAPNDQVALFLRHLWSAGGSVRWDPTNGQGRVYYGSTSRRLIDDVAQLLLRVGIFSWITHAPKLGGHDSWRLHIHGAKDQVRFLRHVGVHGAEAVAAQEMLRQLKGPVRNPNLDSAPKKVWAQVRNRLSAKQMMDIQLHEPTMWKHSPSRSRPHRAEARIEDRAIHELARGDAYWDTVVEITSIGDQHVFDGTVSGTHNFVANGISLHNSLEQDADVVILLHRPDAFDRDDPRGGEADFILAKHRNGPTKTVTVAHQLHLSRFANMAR

[3] = Trypanosoma cruzi growth suppression in host cells – NIH3T3 host cells, beta-gal luminescence, confirmation (AID 2044); format: functional, cell-based;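 also: intracellular parasites grown in NIH/3T3 mouse fibroblasts as host cells; luminescent beta-galactosidase reporter signal from transgenic T. cruzi replicating inside host cells; inhibitors lower the luminescence signal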
[4] = NIH3T3 cell viability loss – ATP luminescence, mouse fibroblasts, counter-screen, dose response (AID 2010); format: functional, cell-based;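 also: cells exposed to compound for about 90 hours before reading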
Cytochrome P450 2C9 = Cytochrome P450 2C9 (Homo sapiens, UniProt P11712)
Sequence of Cytochrome P450 2C9 (P11712 whole entry): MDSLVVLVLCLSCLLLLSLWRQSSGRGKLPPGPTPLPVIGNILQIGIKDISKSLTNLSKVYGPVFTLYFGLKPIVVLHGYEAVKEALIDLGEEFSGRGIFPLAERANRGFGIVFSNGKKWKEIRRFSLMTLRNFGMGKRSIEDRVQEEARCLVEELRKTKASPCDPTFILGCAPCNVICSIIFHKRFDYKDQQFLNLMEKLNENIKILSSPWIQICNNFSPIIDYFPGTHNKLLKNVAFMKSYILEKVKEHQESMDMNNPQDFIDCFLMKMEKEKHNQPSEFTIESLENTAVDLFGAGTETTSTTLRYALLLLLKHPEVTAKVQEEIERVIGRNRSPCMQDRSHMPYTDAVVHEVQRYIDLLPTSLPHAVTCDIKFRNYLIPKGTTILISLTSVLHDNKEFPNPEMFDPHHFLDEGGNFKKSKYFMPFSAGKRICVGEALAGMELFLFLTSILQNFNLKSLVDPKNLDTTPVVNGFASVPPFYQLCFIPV

Compound	EC50 (Protein RecA)	EC50 [3]	EC50 [4]	also measured
Cc1nc(Nc2nc(O)cc(-c3ccccc3)n2)nc2ccccc12	–	–	–	EC50 [1]: 4.95 µM (active); EC50 (Streptococcus): 8.02 µM (active)
N#CC1=C(N)Oc2[nH]nc(-c3cccs3)c2C1c1cccnc1 (configuration not stated)	> 380 µM (inactive)	–	–	–
FC(F)(F)c1cccc(Oc2nc(-c3ccccc3)nnc2C(F)(F)F)c1	0.76 µM (active)	–	–	AC50 [2]: 2.06 µM (active)
O=C(N/N=C/c1cc(Br)cc([N+](=O)[O-])c1O)c1ccc(NC(=O)c2ccc(F)cc2)cc1	–	–	–	EC50 [1]: 2.34 µM (active); EC50 (Streptococcus): 6.54 µM (active)
O=C(CN(c1ccc(Br)cc1)S(=O)(=O)c1ccc(Cl)c([N+](=O)[O-])c1)NCCc1ccccc1	–	0.592 µM (active)	> 60 µM (not active)	–
CCOC(=O)C1(Cc2ccccc2)CCN(Cc2cnc(N3CCOCC3)s2)CC1	–	0.644 µM (active)	> 60 µM (inconclusive)	–
CC(O)CNc1nc2sc3c(c2c(=O)n1CCc1ccccc1)CCCCC3 (configuration not stated)	–	1.89 µM (active)	> 60 µM (not active)	–
CCN1C(=O)c2c(C)nc3ccccc3c2C1=O	0.781 µM (active)	–	–	AC50 [2]: 43.4 µM (active)
Cc1cc(N2C(=O)C(O)=C(C(=O)c3cc4ccccc4o3)C2c2cccc(Cl)c2)no1 (configuration not stated)	–	–	–	EC50 [1]: 2.09 µM (active); EC50 (Streptococcus): 5.36 µM (active)
O=C(NC(=S)NNC(=O)[C@H]1C[C@@H]1c1ccccc1)c1ccc(F)cc1	–	–	–	EC50 [1]: 0.775 µM (active); EC50 (Streptococcus): 1.87 µM (active)
C#CCOC(=O)c1ccccc1C(=O)n1nnc2ccccc21	8.84 µM (active)	–	–	AC50 [2]: 6.81 µM (active)
COc1cccc(-c2cncnc2NCc2ccccc2OC)c1	–	–	–	AC50 (Cytochrome P450 2C9): 0.631 µM (inconclusive)
CC1=NN(Cc2ccccc2)C(=O)C1C(c1ccncc1)C(C#N)C#N (configuration not stated)	3.52 µM (active)	–	–	AC50 [2]: 9.46 µM (active)
CCC(=O)N/N=C(\C)CC(=O)Nc1cccc([N+](=O)[O-])c1	2.36 µM (active)	–	–	AC50 [2]: 23.4 µM (active)
COc1ccc(C(=O)CSc2nc(O)cc(C(F)(F)F)c2C#N)cc1	–	–	–	EC50 [1]: 3.58 µM (active); EC50 (Streptococcus): 15.4 µM (active)
Cc1ccc(SCc2ccc(C(=O)Nc3cccc([N+](=O)[O-])c3C)cc2)cc1	–	1.67 µM (active)	> 30 µM (not active)	–
Cn1cc(C(=O)c2ccc(Cl)cc2Cl)cc1C(=O)O	–	–	–	AC50 (Cytochrome P450 2C9): 14.1 µM (inconclusive)
CN(C)CCC1CCN(c2cc(C#N)c(C#N)cc2[N+](=O)[O-])CC1	–	0.345 µM (active)	> 60 µM (not active)	–
O=C(Nc1nc(-c2ccco2)c(-c2ccco2)s1)c1cnccn1	–	5.79 µM (active)	8.94 µM (active)	–
O=[N+]([O-])c1ccc(N2CCN(S(=O)(=O)c3ccc(Cl)c(Cl)c3)CC2)cc1NCCN1CCOCC1	–	1.68 µM (active)	> 60 µM (not active)	–
CCNc1ncc2nc(-c3cn(C)c4ccccc34)c(=O)n(Cc3ccc(F)cc3)c2n1	–	–	–	AC50 (Cytochrome P450 2C9): 25.1 µM (inconclusive)
O=C(CC[S+]([O-])NCc1ccccc1)NCc1ccccc1 (configuration not stated)	> 380 µM (inactive)	–	–	AC50 [2]: > 380 µM (inactive)
Cc1ccc(N=C(S)c2nc3ccccc3[nH]2)c(C)c1	–	–	–	EC50 [1]: 2.12 µM (active); EC50 (Streptococcus): > 150 µM (not active)

Compound	EC50 (Protein RecA)	EC50 [3]	EC50 [4]	also measured
CCOC(=O)CN1N=C(/C=C/c2ccc(C)cc2)CCC1=O	–	–	–	AC50 (Cytochrome P450 2C9): 28.2 µM (inconclusive)
O=C(NC1CCCC1)C(c1ccncc1)N(Cc1ccco1)C(=O)c1ccc(-c2ccccc2)[nH]1 (configuration not stated)	–	0.641 µM (active)	> 30 µM (not active)	–
CCC1C(=O)N(c2nc(C)cc(C)n2)N=C1C (configuration not stated)	3.3 µM (active)	–	–	AC50 [2]: 8.34 µM (active)
COc1ccc(Nc2ncc3nc(-c4cccs4)c(=O)n(Cc4cccc(OC)c4)c3n2)cc1	–	–	–	AC50 (Cytochrome P450 2C9): 39.8 µM (inconclusive)
CN1CCc2nc(SCC(=O)Nc3ccc(OC(F)(F)F)cc3)c(C#N)c(-c3cccs3)c2C1	2.33 µM (active)	–	–	AC50 [2]: > 380 µM (inactive)
COc1ccc([N+](=O)[O-])cc1NC(=O)COC(=O)C1CC1	–	> 60 µM (not active)	> 60 µM (inconclusive)	–
Cn1[nH]c(CSc2ccc(Cl)cc2)cc1=O	10 µM (active)	–	–	AC50 [2]: 20.2 µM (active)
O=C(O)CCc1ccc(-c2ccccc2)[nH]1	–	–	–	AC50 (Cytochrome P450 2C9): 3.16 µM (inconclusive)
CC(C)c1ccc(C(=O)NC(=S)Nc2ccc3[nH]c(O)nc3c2)cc1	–	–	–	EC50 [1]: 10.2 µM (active); EC50 (Streptococcus): 53.6 µM (active)
Cc1cc(C)cc(C(=O)Nc2nc3ccccc3[nH]2)c1	–	–	–	EC50 [1]: 10.6 µM (active); EC50 (Streptococcus): 7.31 µM (active)
Cc1cc(C)c(C#N)c(SCc2nnc(-c3ccccc3[N+](=O)[O-])o2)n1	–	2.2 µM (active)	> 60 µM (not active)	–
O=c1c2c3c(sc2n(CCN2CCCC2)c(=O)n1Cc1ccco1)CCCCC3	–	0.331 µM (active)	> 30 µM (not active)	–
O=C(Cn1cnc([N+](=O)[O-])n1)NCc1ccccc1	–	0.479 µM (active)	> 60 µM (not active)	–
CCOc1ccccc1Oc1coc2cc(OC(=O)c3ccco3)ccc2c1=O	35.7 µM (active)	–	–	AC50 [2]: > 380 µM (inactive)
C/C(CC(=O)Nc1ccccn1)=N\NC(=O)Cc1cccc2ccccc12	2.73 µM (active)	–	–	AC50 [2]: 3.54 µM (active)
CC1CN(c2nc3ccccc3nc2C(C#N)C(=O)OC2CCCCC2)CC(C)O1 (configuration not stated)	–	1.15 µM (active)	10.6 µM (active)	–
CN1CCN(C2=C(Cl)C(=O)N(c3ccc(Cl)cc3)C2=O)CC1	0.247 µM (active)	–	–	AC50 [2]: 1.07 µM (active)
O=C(NCc1ccc2c(c1)OCO2)c1ccc(N2CCCCCC2)c([N+](=O)[O-])c1	–	0.709 µM (active)	> 60 µM (not active)	–
Cc1nc2cnc(OCc3ccccc3)nc2n(Cc2ccc(F)cc2)c1=O	–	–	–	AC50 (Cytochrome P450 2C9): 10 µM (inconclusive)
COc1cc(/C=C/C(=O)OCC(=O)Nc2ccccc2Sc2ccc(Cl)cc2)ccc1O	3.62 µM (active)	–	–	AC50 [2]: > 380 µM (inactive)
CN(C)[C@@H]1C(O)=C(C(N)=O)C(=O)[C@]2(O)C(O)=C3C(=O)c4c(O)cccc4[C@@](C)(O)[C@H]3[C@H](O)[C@@H]12	–	–	–	AC50 (Cytochrome P450 2C9): 5.01 µM (inconclusive)
Cc1ccn2c(Nc3ccccc3C)c(-c3ccncc3)nc2c1	–	0.56 µM (active)	> 60 µM (not active)	–
N#C/C(=C/N1CCOCC1)c1ccccc1	–	–	–	AC50 (Cytochrome P450 2C9): 28.2 µM (inconclusive)
